Series [1] is described as follows: Water solubility. It counts as physicochemical.
Series [2] deals with spliceosome (SF3B1) (Homo sapiens, UniProt O75533+Q7RTV0). The following applies: in vivo; cited from earlier work.
Chain of spliceosome (SF3B1) (Q7RTV0 whole entry, canonical isoform): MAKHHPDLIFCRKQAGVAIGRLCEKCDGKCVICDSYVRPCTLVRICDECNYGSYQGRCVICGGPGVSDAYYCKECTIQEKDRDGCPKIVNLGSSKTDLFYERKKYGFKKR
Chain of spliceosome (SF3B1) (Q15393 whole entry, further chain, canonical isoform): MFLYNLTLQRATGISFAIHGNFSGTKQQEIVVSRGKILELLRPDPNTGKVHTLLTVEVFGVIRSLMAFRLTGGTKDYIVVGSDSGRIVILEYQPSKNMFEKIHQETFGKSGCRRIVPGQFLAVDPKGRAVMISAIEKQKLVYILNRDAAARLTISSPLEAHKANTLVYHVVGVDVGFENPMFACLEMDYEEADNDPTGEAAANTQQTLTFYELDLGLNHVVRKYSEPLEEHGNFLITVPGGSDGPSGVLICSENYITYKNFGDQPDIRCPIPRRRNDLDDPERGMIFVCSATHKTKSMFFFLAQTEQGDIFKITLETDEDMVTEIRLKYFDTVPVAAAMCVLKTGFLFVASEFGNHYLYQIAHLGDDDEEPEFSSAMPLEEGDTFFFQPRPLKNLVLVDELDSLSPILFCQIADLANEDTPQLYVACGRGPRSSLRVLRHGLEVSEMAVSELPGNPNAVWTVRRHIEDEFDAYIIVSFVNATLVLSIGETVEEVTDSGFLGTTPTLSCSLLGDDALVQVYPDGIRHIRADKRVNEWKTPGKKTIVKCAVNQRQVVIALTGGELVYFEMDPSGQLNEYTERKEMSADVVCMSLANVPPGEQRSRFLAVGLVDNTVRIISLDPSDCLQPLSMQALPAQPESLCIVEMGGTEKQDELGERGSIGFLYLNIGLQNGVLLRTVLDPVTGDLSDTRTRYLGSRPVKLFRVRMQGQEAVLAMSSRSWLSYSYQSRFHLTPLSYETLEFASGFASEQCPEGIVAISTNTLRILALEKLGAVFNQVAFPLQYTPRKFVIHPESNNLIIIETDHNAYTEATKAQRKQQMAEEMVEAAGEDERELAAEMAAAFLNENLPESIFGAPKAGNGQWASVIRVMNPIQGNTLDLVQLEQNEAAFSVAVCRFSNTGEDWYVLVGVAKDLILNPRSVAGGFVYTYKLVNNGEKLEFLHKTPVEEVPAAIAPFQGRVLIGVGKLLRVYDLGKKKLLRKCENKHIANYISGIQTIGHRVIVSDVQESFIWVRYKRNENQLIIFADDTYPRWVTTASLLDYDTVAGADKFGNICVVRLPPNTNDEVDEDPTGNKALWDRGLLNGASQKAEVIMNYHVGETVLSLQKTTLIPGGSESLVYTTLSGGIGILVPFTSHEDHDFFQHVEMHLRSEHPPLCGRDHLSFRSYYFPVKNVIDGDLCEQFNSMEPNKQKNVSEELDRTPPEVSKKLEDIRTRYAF
Chain of spliceosome (SF3B1) (Q9BWJ5 whole entry, further chain, canonical isoform): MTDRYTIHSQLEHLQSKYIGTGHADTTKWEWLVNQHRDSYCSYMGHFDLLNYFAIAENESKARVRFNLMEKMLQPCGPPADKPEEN
Chain of spliceosome (SF3B1) (O75533 whole entry, canonical isoform): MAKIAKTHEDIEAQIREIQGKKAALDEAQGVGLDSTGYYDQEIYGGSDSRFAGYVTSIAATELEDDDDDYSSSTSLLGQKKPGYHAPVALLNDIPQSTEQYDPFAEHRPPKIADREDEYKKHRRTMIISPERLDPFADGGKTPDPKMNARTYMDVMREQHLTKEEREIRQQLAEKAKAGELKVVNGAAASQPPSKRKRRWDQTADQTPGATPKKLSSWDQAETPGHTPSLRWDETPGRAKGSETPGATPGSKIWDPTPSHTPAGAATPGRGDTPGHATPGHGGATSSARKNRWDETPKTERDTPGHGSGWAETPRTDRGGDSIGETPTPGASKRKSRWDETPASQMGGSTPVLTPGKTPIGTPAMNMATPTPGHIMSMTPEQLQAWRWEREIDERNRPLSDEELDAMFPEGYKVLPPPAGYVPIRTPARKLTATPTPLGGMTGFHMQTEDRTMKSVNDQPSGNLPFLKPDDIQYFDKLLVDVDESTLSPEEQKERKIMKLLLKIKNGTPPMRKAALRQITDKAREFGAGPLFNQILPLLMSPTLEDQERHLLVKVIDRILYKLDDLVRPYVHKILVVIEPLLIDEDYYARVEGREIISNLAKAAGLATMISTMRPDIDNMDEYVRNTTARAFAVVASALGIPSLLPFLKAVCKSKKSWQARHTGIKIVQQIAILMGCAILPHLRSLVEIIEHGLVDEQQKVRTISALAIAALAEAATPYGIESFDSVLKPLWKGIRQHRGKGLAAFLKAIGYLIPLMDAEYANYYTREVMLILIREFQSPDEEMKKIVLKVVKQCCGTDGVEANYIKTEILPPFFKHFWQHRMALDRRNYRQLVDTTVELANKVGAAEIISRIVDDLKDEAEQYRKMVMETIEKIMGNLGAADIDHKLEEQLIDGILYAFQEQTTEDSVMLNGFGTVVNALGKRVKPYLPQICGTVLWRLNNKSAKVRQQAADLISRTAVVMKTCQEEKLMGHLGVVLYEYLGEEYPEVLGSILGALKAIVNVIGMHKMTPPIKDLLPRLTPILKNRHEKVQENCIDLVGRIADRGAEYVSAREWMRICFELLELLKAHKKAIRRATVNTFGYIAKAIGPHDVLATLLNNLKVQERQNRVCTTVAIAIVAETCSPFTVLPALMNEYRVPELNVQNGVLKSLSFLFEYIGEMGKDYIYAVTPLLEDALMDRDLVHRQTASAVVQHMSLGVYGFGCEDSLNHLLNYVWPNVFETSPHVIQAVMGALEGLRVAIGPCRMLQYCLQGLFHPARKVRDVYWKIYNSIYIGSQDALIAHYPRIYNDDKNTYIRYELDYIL

On to `COc1ccc(-c2cc(=O)c3c([O-])cc(OP(=O)(O)O)c(-c4cc(-c5cc(=O)c6c([O-])cc(OP(=O)(O)O)cc6o5)ccc4OC)c3o2)cc1.[Na+].[Na+]` [Compound 2], for which the water solubility result in series [1] is listed as “considerably higher than that of the parent compound isoginkgetin”. On to `CC[C@H](O)[C@@H](C)[C@H]1O[C@@H]1C[C@@](C)(O)/C=C/C=C(\C)[C@H]1OC(=O)C[C@H](O)CC[C@@](C)(O)[C@@H](OC(=O)N2CCN(C3CCCCCC3)CC2)/C=C/[C@@H]1C` [E7107], for which the “outcome of testing in human” value in series [2] was “stopped because of problems of toxicity”.

(Values after patent US11110105B2, “Compounds, composition and uses thereof for treating cancer” (INSTITUT GUSTAVE ROUSSY, priority 2017, dated 2021).)
